The results in this text go back to patent publication US20070093416A1, “Human beta-defensin secretion promoter” (priority 2003, published 2007).

Structures are written as SMILES.

The experiment deals with β-defensin-2. Description: β-Defensin Secretion Promotion Confirmatory Test-3 (Concentration Dependency). In kind it is in vivo, human. Conditions: 3 healthy adults. On the procedure: To evaluate β-defensin secretion promotion effects and concentration dependency of an organic acid, the following tests were conducted using 3 healthy adults as subjects. Saliva secreted for 3 minutes from rested subjects was collected by a spitting method (hereunder, this is referred to as the control). Thereafter, 1 ml of 0.01 wt % malic acid (amount of malic acid ingested: 0.1 mg) was placed in the oral cavity, held for one minute, and then collected together with the secreted saliva. The concentration of β-defensin-2 in the saliva was measured by ELISA, and the amount of β-defensin-2 secreted over one minute using 0.1 mg of malic acid was calculated based on the formula below. Note that the saliva amount (ml) in the formula below was calculated based on the weight of the collected saliva (g) assuming 1 g of saliva=1 ml of saliva. The same test was conducted, respectively, using 0.05, 0.1, 0.2, 0.5, or 1 wt % malic acid aqueous solution (amounts of ingested: 0.5, 1, 2, 5, and 10 mg). [table]

Regarding `O=C(O)CC(O)C(=O)O` (centres unmarked) [malic acid], the “amount of β-defensin-2 secreted in saliva” value (1 ml of 0.01-1 wt % malic acid aqueous solution (0.1-10 mg) held in oral cavity for one minute, FIG. 3) was “increases depending on the concentration”. The “human β-defensin-2 secretion induction effect” value (concentration of 0.01% (amount ingested: 0.1 mg), 1 ml held in oral cavity for one minute) was “has a human β-defensin-2 secretion induction effect”.
